Laboratory results from ChEMBL document CHEMBL1135082, “Benzylidene rhodanines as novel inhibitors of UDP-N-acetylmuramate/L-alanine ligase” (Bioorg Med Chem Lett, 2002).
Converted amounts (≈) assume the structure as drawn.

What was measured:
CHO [1] = assay: Cytotoxic effect at mammalian Chinese hamster ovary (CHO) cells; Toxic; assay type: functional, cell-based; details: Cricetulus griseus
Staphylococcus aureus = assay: The whole cell inhibitory activity was evaluated against Gram-positive methicillin-resistant Staphylococcus aureus (MRSA); assay type: functional
[2] = Inhibitory concentration against recombinant UDP-N-Acetylmuramate/L-Alanine Ligase (MurC) enzyme
Escherichia coli = assay: The whole cell inhibitory activity was evaluated against the Gram-negative Escherichia coli; Not active; assay type: functional
CHO [3] = assay: Cytotoxic effect at mammalian Chinese hamster ovary (CHO) cells; assay type: functional, cell-based; details: Cricetulus griseus

| Compound | IC50 (CHO [1]) [µM] | MIC (Staphylococcus aureus) [µM] | IC50 [2] [µM] | MIC (Escherichia coli) [µM] | IC50 (CHO [3]) [µM] |
| --- | --- | --- | --- | --- | --- |
| O=C1NC(=S)S/C1=C/c1cc([N+](=O)[O-])ccc1SCc1ccc(Cl)cc1 | 29 | 31 (≈ 13.1 µg/mL) | 27 | > 65 |  |
| O=C1NC(=S)S/C1=C\c1cccc(Oc2ccccc2)c1 |  | 79 (≈ 24.8 µg/mL) | 22 | > 87 | > 96 |
| O=C1NC(=S)S/C1=C\c1cc([N+](=O)[O-])ccc1Sc1ccc(Cl)cc1 |  | 70 (≈ 28.6 µg/mL) | 24 | > 87 | > 73 |
| O=C1NC(=S)S/C1=C\c1ccc(/C=C/c2ccccc2)cc1 |  | > 93 | 18 | > 93 |  |
| O=C1NC(=S)S/C1=C\c1cc(OCc2ccccc2)cc(OCc2ccccc2)c1 |  | > 69 | 12 | > 69 |  |
| O=C1NC(=S)S/C1=C\c1cc([N+](=O)[O-])ccc1Oc1ccc(Cl)cc1 |  | > 76 | 24 | > 76 |  |
